Data as given in ChEMBL document CHEMBL1201862, “PubChem BioAssay data set” (2004).
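Cells were grown in 96-well plates and exposed to each compound for 48 hours at five concentrations; endpoints were interpolated linearly between bracketing concentrations, or set to the highest concentration if not reached. GI50 marks 50% less growth.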 Activity calls are given as the source filed them. No stated cut-off is given here; in the data, active = GI50 up to about 1.1 µM and inactive = higher.

Tests used:
Assay in all cases: growth of human tumour cells (NCI), 48 h
786-0 = test system: 786-0
A498 = test system: A498
A549 = test system: A549
ACHN = test system: ACHN
BT-549 = test system: BT-549
CAKI-1 = test system: CAKI-1
CCRF-CEM = test system: CCRF-CEM
COLO 205 = test system: COLO 205
DU-145 = test system: DU-145
EKVX = test system: EKVX
HCC 2998 = test system: HCC 2998
HCT-116 = test system: HCT-116
HCT-15 = test system: HCT-15
HOP-62 = test system: HOP-62
HOP-92 = test system: HOP-92
HT-29 = test system: HT-29
Hs-578T = test system: Hs-578T
IGROV-1 = test system: IGROV-1
K562 = test system: K562
KM12 = test system: KM12
LOX IMVI = test system: LOX IMVI
M14 = test system: M14
MCF7 = test system: MCF7
MDA-MB-231 = test system: MDA-MB-231
MDA-MB-435 = test system: MDA-MB-435
MDA-N = test system: MDA-N
MOLT-4 = test system: MOLT-4
Malme-3M = test system: Malme-3M
NCI-H226 = test system: NCI-H226
NCI-H23 = test system: NCI-H23
NCI-H460 = test system: NCI-H460
NCI-H522 = test system: NCI-H522
NCI/ADR-RES = test system: NCI/ADR-RES
OVCAR-3 = test system: OVCAR-3
OVCAR-4 = test system: OVCAR-4
OVCAR-5 = test system: OVCAR-5
OVCAR-8 = test system: OVCAR-8
PC-3 = test system: PC-3
RPMI-8226 = test system: RPMI-8226
RXF 393 = test system: RXF 393
SF-268 = test system: SF-268
SF-295 = test system: SF-295
SF-539 = test system: SF-539
SK-MEL-28 = test system: SK-MEL-28
SK-MEL-2 = test system: SK-MEL-2
SK-MEL-5 = test system: SK-MEL-5
SK-OV-3 = test system: SK-OV-3
SN12C = test system: SN12C
SNB-19 = test system: SNB-19
SNB-75 = test system: SNB-75
SR = test system: SR
SW-620 = test system: SW-620
T47D = test system: T47D
TK-10 = test system: TK-10
U-251 = test system: U-251
UACC-257 = test system: UACC-257
UACC-62 = test system: UACC-62
UO-31 = test system: UO-31
HL-60 = test system: HL-60

Measured: GI50

CN(N=O)c1nc2c(C(N)=O)ncn2s1
> 100 µM: HCT-15
inactive: 786-0 85.1 µM | A498 > 100 µM | A549 > 100 µM | ACHN 57.3 µM | BT-549 > 100 µM | CAKI-1 28.1 µM | CCRF-CEM 45.4 µM | COLO 205 > 100 µM | DU-145 20 µM | EKVX > 100 µM | HCC 2998 45.6 µM | HCT-116 53 µM | HOP-62 28.8 µM | HOP-92 32.7 µM | HT-29 > 100 µM | Hs-578T > 100 µM | IGROV-1 63.1 µM | K562 48.4 µM | KM12 > 100 µM | LOX IMVI 15.2 µM | M14 15.7 µM | MCF7 86.7 µM | MDA-MB-231 36.3 µM | MDA-MB-435 53.2 µM | MDA-N > 100 µM | MOLT-4 > 100 µM | Malme-3M 85.7 µM | NCI-H226 > 100 µM | NCI-H23 > 100 µM | NCI-H460 52.1 µM | NCI-H522 76.4 µM | NCI/ADR-RES 39.7 µM | OVCAR-3 87.1 µM | OVCAR-4 47.9 µM | OVCAR-5 > 100 µM | OVCAR-8 30.5 µM | PC-3 91.2 µM | RPMI-8226 45 µM | RXF 393 > 100 µM | SF-268 55.5 µM | SF-295 68.2 µM | SF-539 80.7 µM | SK-MEL-28 > 100 µM | SK-MEL-2 35.8 µM | SK-MEL-5 > 100 µM | SK-OV-3 48.6 µM | SN12C 97.7 µM | SNB-19 > 100 µM | SNB-75 49 µM | SR 48.9 µM | SW-620 46.9 µM | T47D > 100 µM | TK-10 20 µM | U-251 > 100 µM | UACC-257 94.6 µM | UACC-62 32.7 µM | UO-31 22.2 µM

NC(CP(=O)(O)O)C(=O)O (stereo not given)
inactive: 786-0 > 100 µM | A498 > 100 µM | A549 > 100 µM | ACHN > 100 µM | BT-549 > 100 µM | CAKI-1 > 100 µM | CCRF-CEM > 100 µM | COLO 205 > 100 µM | DU-145 > 100 µM | EKVX > 100 µM | HCC 2998 > 100 µM | HCT-116 > 100 µM | HL-60 > 100 µM | HOP-62 > 100 µM | HOP-92 > 100 µM | HT-29 > 100 µM | Hs-578T > 100 µM | IGROV-1 > 100 µM | K562 > 100 µM | KM12 > 100 µM | LOX IMVI 43.6 µM | M14 > 100 µM | MCF7 > 100 µM | MDA-MB-231 > 100 µM | MDA-MB-435 > 100 µM | MDA-N > 100 µM | MOLT-4 > 100 µM | Malme-3M > 100 µM | NCI-H226 > 100 µM | NCI-H23 > 100 µM | NCI-H460 > 100 µM | NCI-H522 > 100 µM | NCI/ADR-RES > 100 µM | OVCAR-3 > 100 µM | OVCAR-4 > 100 µM | OVCAR-5 > 100 µM | OVCAR-8 > 100 µM | PC-3 > 100 µM | RPMI-8226 > 100 µM | RXF 393 > 100 µM | SF-268 > 100 µM | SF-295 > 100 µM | SK-MEL-28 > 100 µM | SK-MEL-2 > 100 µM | SK-MEL-5 > 100 µM | SK-OV-3 > 100 µM | SN12C > 100 µM | SNB-19 > 100 µM | SNB-75 > 100 µM | SR > 100 µM | SW-620 > 100 µM | T47D > 100 µM | TK-10 > 100 µM | U-251 > 100 µM | UACC-257 > 100 µM | UACC-62 > 100 µM | UO-31 > 100 µM
> 100 µM: HCT-15

CC(=O)OCC1OC(N2C(S)=C(C#N)C(c3ccco3)C(C(C)=O)=C2c2ccccc2)C(OC(C)=O)C(OC(C)=O)C1OC(C)=O (stereo not given)
> 100 µM: HCT-15
inactive: 786-0 29.3 µM | A498 > 100 µM | A549 49.4 µM | ACHN > 10 µM | BT-549 > 100 µM | CAKI-1 40.9 µM | CCRF-CEM 28.3 µM | COLO 205 64.9 µM | DU-145 79.8 µM | HCC 2998 > 100 µM | HCT-116 51.9 µM | HL-60 > 100 µM | HOP-62 16.9 µM | HOP-92 32.9 µM | HT-29 > 100 µM | Hs-578T 17.7 µM | IGROV-1 54.5 µM | K562 > 100 µM | KM12 > 100 µM | LOX IMVI 32.1 µM | M14 94.6 µM | MCF7 > 100 µM | MDA-MB-231 > 100 µM | MDA-MB-435 > 100 µM | MDA-N 26.2 µM | MOLT-4 > 100 µM | Malme-3M 52.5 µM | NCI-H226 > 100 µM | NCI-H23 64.4 µM | NCI-H460 > 100 µM | NCI-H522 32.1 µM | NCI/ADR-RES > 100 µM | OVCAR-3 77.6 µM | OVCAR-4 13.4 µM | OVCAR-5 62.4 µM | OVCAR-8 61 µM | PC-3 24.9 µM | RPMI-8226 95.9 µM | RXF 393 > 100 µM | SF-268 > 100 µM | SF-295 23.4 µM | SF-539 78.5 µM | SK-MEL-28 30.1 µM | SK-MEL-2 > 100 µM | SK-MEL-5 29 µM | SN12C 29.4 µM | SNB-19 39.5 µM | SNB-75 8.49 µM | SR > 100 µM | SW-620 89.9 µM | T47D > 100 µM | TK-10 > 100 µM | U-251 39.3 µM | UACC-257 > 100 µM | UACC-62 34 µM | UO-31 29.3 µM

O=C(O)c1cc(-c2ccncc2)nc2ccccc12
> 100 µM: HCT-15
inactive: 786-0 > 100 µM | A498 > 100 µM | A549 > 100 µM | ACHN > 100 µM | BT-549 > 100 µM | CAKI-1 > 100 µM | COLO 205 > 100 µM | DU-145 > 100 µM | EKVX > 100 µM | HCC 2998 > 100 µM | HCT-116 > 100 µM | HL-60 > 100 µM | HOP-62 > 100 µM | HOP-92 > 100 µM | HT-29 > 100 µM | Hs-578T > 100 µM | IGROV-1 > 100 µM | K562 > 100 µM | KM12 > 100 µM | LOX IMVI > 100 µM | M14 > 100 µM | MCF7 > 100 µM | MDA-MB-231 > 100 µM | MDA-MB-435 > 100 µM | MDA-N > 100 µM | MOLT-4 > 100 µM | Malme-3M > 100 µM | NCI-H226 > 100 µM | NCI-H23 > 100 µM | NCI-H460 > 100 µM | NCI-H522 > 100 µM | NCI/ADR-RES > 100 µM | OVCAR-3 > 100 µM | OVCAR-4 > 100 µM | OVCAR-5 > 100 µM | OVCAR-8 > 100 µM | PC-3 > 100 µM | RPMI-8226 > 100 µM | RXF 393 > 100 µM | SF-268 > 100 µM | SF-295 > 100 µM | SF-539 > 100 µM | SK-MEL-28 > 100 µM | SK-MEL-2 > 100 µM | SK-MEL-5 > 100 µM | SK-OV-3 > 100 µM | SN12C > 100 µM | SNB-19 > 100 µM | SR > 100 µM | SW-620 > 100 µM | T47D > 100 µM | TK-10 > 100 µM | U-251 > 100 µM | UACC-257 > 100 µM | UACC-62 > 100 µM | UO-31 > 100 µM
